Test results taken from ChEMBL document CHEMBL5154675, “Design, Synthesis, and Biological Evaluation of 1-(Indolizin-3-yl)ethan-1-ones as CBP Bromodomain Inhibitors for the Treatment of Prostate Cancer” (J Med Chem, 2022).
Calls of active or inactive are those of the source. The calls are words filed in the database; no cut-off is given here.

Tests used:
[1] = Efflux ratio of apparent permeability across basolateral to apical side over apical to basolateral side in human Caco-2 cells at 10 uM measured after 2 hrs by LC-MS/MS analysis; type: ADME, cell-based
CWR22R [2] = experiment: Suppression of c-Myc protein expression in human 22Rv1 cells at 5 uM incubated for 48 hrs by Western blot analysis; type: functional, cell-based
CWR22R [3] = experiment: Suppression of PSA gene expression in human 22Rv1 cells incubated for 48 hrs by dual luciferase reporter assay; type: functional, cell-based; details: dose 0-20 µM, DDE = dose-dependent effect
[4] = Clearance in Sprague-Dawley rat at 5 mg/kg, iv administered as single dose measured up to 24 hrs; type: ADME, organism-based; details: in vivo, iv, 5 mg/kg, 24 h
[5] = Half life in rat liver microsomes at 1 uM incubated for 45 mins in presence of NADPH by LC-MS/MS analysis; type: ADME, Microsome
[6] = target: T1, Bromodomain-containing protein 4 (Homo sapiens, UniProt O60885); details: dose 200.0 µM, time 30.0 min
[7] = target: T2, Bromodomain-containing protein 2 (Homo sapiens, UniProt P25440); experiment: Binding affinity to His6-tagged human BRD2 bromodomain-1 (77 to 194 residues) expressed in Escherichia coli BL21 (DE3) assessed as dissociation constant by ITC analysis
Target sequence in this assay (P25440 whole entry, the tested form may be a part): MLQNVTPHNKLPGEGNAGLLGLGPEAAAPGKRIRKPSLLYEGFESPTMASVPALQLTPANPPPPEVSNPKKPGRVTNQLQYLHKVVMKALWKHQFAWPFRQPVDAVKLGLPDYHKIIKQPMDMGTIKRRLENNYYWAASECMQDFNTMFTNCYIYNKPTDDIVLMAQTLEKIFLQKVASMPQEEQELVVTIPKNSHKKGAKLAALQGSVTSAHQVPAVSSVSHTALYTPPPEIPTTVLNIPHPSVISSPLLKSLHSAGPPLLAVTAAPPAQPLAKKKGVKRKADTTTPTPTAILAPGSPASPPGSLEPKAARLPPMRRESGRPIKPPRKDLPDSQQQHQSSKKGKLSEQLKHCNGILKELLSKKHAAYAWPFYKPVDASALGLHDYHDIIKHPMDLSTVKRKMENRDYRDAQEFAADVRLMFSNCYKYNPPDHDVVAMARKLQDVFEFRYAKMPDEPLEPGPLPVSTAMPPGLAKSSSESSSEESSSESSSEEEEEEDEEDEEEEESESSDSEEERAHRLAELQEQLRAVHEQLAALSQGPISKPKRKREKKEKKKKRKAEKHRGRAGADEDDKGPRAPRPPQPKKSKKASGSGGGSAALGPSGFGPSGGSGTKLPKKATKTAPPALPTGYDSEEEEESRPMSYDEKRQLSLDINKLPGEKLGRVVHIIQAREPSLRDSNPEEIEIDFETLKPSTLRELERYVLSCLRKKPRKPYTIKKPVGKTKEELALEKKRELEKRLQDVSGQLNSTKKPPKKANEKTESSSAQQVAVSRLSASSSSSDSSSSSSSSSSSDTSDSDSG

[8] = target: Histone acetyltransferase p300 (Homo sapiens) (UniProt Q09472); details: dose 200.0 µM, time 30.0 min
[9] = target: T3, Bromodomain-containing protein 3 (Homo sapiens, UniProt Q15059); experiment: Binding affinity to His6-tagged human BRD3 bromodomain-2 (306 to 416 residues) expressed in Escherichia coli BL21 (DE3) assessed as dissociation constant by ITC analysis
Target sequence in this assay (Q15059 whole entry, the tested form may be a part): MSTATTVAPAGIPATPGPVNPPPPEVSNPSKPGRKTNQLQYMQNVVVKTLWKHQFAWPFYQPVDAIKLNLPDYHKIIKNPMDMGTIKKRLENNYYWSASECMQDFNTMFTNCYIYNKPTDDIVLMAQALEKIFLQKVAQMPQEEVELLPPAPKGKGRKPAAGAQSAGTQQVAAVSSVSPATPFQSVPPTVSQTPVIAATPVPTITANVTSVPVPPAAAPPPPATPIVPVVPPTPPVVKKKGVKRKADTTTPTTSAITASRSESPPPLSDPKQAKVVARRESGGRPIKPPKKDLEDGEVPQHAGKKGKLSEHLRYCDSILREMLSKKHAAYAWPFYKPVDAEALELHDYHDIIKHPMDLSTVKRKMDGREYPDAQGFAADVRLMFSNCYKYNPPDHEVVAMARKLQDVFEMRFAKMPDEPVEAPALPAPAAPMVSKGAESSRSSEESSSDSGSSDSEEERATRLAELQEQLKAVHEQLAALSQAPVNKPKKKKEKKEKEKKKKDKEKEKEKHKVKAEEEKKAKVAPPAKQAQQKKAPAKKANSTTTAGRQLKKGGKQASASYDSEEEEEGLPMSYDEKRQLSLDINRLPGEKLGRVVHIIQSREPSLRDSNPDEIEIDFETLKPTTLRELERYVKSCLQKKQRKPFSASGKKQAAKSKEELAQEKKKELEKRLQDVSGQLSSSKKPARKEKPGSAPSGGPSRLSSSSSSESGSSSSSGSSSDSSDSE

CWR22R [10] = experiment: Inhibition of colony formation in human 22Rv1 cells at 1 to 4 uM incubated for 14 days by crystal violet staining based assay; type: functional, cell-based; details: dose 1-4 µM, time 14.0 day
[11] = Oral bioavailability in Sprague-Dawley rat at 25 mg/kg measured up to 24 hrs; type: ADME, organism-based; details: in vivo
LNCaP = experiment: Antiproliferative activity against human LNCaP cells assessed as cell growth inhibition by Celltiter-Glo assay; type: functional, cell-based
[12] = target: T1, Bromodomain-containing protein 4; details: dose 200.0 µM, time 30.0 min; remark: listed apart in the source
CWR22R [13] = experiment: Suppression of Androgen receptor target-gene expression in human 22Rv1 cells at 5 uM incubated for 48 hrs by SYBR green dye-based qRT-PCR analysis; type: functional, cell-based
[14] = Cmax in Sprague-Dawley rat at 5 mg/kg, iv administered as single dose measured up to 24 hrs; type: ADME, organism-based; set-up: time < 24 hrs, dose 5 mg/kg, route iv; details: in vivo
[15] = Cmax in Sprague-Dawley rat at 25 mg/kg, po measured up to 24 hrs; type: ADME, organism-based; set-up: dose 25 mg/kg, time < 24 hrs, route po; details: in vivo
[16] = Apparent permeability across apical to basolateral side in human Caco-2 cells at 10 uM measured after 2 hrs by LC-MS/MS analysis; type: ADME, cell-based
CREB-binding protein [17] = target: T4, CREB-binding protein (Homo sapiens, UniProt Q92793); experiment: Binding affinity to His6-tagged human CBP bromodomain (1081 to 1197 residues) expressed in Escherichia coli BL21 (DE3) assessed as dissociation constant by ITC analysis
Target sequence in this assay (Q92793 whole entry, the tested form may be a part): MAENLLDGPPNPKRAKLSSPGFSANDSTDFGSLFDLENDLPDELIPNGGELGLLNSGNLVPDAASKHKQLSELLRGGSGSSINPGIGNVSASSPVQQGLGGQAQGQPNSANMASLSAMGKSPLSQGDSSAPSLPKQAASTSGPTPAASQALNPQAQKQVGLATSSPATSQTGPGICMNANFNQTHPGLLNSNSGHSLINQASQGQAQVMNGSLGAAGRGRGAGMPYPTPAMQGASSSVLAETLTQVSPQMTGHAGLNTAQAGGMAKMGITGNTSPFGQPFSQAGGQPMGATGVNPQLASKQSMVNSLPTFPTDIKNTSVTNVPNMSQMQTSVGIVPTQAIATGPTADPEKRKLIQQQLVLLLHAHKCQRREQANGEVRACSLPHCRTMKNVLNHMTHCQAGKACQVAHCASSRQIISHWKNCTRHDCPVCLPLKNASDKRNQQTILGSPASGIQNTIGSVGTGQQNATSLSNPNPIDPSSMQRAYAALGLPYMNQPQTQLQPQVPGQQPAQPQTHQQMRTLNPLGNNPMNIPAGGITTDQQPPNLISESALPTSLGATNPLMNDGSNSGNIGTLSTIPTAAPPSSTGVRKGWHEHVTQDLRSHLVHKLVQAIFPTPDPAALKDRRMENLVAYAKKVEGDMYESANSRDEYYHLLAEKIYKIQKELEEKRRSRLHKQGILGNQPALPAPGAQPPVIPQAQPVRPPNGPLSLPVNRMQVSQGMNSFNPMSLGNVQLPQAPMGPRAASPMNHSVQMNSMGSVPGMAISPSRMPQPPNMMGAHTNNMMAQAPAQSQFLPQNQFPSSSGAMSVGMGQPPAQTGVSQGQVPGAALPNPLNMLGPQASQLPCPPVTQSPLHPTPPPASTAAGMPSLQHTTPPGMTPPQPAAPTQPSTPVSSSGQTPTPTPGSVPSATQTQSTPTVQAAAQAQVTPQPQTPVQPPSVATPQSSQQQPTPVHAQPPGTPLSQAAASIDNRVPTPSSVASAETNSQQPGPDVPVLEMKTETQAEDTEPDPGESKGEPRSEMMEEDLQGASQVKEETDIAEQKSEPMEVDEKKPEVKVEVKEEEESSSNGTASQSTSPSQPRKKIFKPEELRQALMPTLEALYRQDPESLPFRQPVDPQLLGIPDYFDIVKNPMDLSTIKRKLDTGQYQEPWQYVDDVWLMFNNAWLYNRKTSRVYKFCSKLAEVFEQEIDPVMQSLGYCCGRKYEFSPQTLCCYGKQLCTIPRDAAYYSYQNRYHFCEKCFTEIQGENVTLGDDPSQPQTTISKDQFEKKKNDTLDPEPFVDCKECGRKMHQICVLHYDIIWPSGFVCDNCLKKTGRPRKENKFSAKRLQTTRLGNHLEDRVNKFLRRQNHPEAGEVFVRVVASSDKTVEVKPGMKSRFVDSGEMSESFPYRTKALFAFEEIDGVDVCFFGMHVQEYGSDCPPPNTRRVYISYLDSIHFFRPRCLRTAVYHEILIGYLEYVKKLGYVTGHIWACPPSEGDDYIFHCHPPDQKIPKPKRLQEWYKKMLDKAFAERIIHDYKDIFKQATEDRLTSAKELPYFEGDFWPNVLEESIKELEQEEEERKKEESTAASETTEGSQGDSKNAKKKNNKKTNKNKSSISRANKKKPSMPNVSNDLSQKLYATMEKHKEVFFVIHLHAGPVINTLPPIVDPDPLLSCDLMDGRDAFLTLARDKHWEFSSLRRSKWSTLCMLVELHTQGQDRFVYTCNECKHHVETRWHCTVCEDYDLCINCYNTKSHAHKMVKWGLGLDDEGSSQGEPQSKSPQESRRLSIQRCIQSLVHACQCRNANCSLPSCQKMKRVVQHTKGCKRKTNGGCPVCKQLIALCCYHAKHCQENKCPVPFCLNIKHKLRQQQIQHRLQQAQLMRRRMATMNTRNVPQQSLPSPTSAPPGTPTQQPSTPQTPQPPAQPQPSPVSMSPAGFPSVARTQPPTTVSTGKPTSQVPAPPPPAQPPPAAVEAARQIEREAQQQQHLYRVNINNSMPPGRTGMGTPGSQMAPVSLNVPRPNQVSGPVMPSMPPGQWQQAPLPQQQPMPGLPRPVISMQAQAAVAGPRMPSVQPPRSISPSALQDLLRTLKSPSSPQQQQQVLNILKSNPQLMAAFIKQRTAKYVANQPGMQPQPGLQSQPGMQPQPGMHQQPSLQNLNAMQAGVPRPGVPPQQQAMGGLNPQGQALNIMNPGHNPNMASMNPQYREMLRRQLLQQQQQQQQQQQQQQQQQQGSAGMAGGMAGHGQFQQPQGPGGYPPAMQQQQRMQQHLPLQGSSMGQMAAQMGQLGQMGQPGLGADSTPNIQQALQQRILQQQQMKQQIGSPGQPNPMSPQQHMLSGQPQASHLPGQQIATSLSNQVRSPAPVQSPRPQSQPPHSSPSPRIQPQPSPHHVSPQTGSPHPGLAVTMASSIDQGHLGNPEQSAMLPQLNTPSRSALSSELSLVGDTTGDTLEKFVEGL

[18] = Intrinsic clearance in human liver microsomes at 1 uM incubated for 45 mins in presence of NADPH by LC-MS/MS analysis; type: ADME, Microsome; details: read-out: CLH
[19] = AUC (0 to infinity) in Sprague-Dawley rat at 25 mg/kg, po measured up to 24 hrs; type: ADME, organism-based; set-up: time < 24 hrs, dose 25 mg/kg, route po; details: in vivo
[20] = target: SWI/SNF-related matrix-associated actin-dependent regulator of chromatin subfamily A member 2 (Homo sapiens) (UniProt P51531); details: dose 200.0 µM, time 30.0 min
LNCaP C4-2B [21] = experiment: Inhibition of colony formation in human LNCaP C4-2B cells at 1 to 4 uM incubated for 14 days by crystal violet staining based assay; type: functional, cell-based; details: dose 1-4 µM, time 14.0 day
[22] = target: Bromodomain testis-specific protein (Homo sapiens, UniProt Q58F21); details: dose 200.0 µM, time 30.0 min
[23] = target: T2, Bromodomain-containing protein 2; details: dose 200.0 µM, time 30.0 min
CREB-binding protein [24] = target: T4, CREB-binding protein; details: dose 200.0 µM, time 30.0 min
[25] = target: Chromatin remodeling regulator CECR2 (Homo sapiens) (UniProt Q9BXF3); details: dose 200.0 µM, time 30.0 min
[26] = Toxicity in NOD SCID mouse xenografted with human 22Rv1 cells assessed as body weight loss at 40 mg/kg, ip administered once daily for 21 days and measured every other day; type: organism-based, CWR22R; details: in vivo, 504 h, time 21 day
in vitro = details: rat, liver microsomes
Description: Hepatic extraction ratio in rat liver microsomes at 1 uM incubated for 45 mins in presence of NADPH by LC-MS/MS analysis

[27] = Metabolic stability in human liver microsomes assessed as parent compound remaining at 1 uM incubated for 45 mins in presence of NADPH by LC-MS/MS analysis; type: ADME, Microsome; details: read-out: Stability
[28] = target: Histone acetyltransferase KAT2B (Homo sapiens) (UniProt Q92831); details: dose 200.0 µM, time 30.0 min
Histone acetyltransferase KAT2B (Homo sapiens), sequence (Q92831 whole entry, looked up): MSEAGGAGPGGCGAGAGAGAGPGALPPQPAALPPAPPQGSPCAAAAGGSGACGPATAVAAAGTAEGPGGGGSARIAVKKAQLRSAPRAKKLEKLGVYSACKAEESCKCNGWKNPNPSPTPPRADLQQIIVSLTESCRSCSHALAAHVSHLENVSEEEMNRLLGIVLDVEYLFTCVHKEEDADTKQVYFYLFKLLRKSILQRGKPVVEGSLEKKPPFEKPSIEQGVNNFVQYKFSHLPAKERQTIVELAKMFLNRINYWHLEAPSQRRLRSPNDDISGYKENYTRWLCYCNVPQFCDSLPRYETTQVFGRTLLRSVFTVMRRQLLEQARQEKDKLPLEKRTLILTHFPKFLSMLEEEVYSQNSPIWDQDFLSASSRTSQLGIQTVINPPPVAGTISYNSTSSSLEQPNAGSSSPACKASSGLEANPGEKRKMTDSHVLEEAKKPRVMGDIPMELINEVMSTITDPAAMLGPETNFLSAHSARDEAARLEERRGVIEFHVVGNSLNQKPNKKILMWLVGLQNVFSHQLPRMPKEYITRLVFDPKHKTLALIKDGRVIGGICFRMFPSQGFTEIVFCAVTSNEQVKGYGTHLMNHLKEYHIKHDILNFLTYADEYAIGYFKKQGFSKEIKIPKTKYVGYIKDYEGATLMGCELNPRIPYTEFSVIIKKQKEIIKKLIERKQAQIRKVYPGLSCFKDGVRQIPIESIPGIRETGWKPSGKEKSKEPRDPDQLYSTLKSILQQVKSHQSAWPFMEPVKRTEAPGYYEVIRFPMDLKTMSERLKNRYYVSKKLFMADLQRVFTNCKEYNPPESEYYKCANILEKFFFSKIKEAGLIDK

[29] = target: T3, Bromodomain-containing protein 3; details: dose 200.0 µM, time 30.0 min
[30] = Intrinsic clearance in rat liver microsomes at 1 uM incubated for 45 mins in presence of NADPH by LC-MS/MS analysis; type: ADME, Microsome; details: read-out: CLH
LNCaP C4-2B [31] = experiment: Induction of apoptosis in human LNCaP C4-2B cells assessed as increase in apoptotic cells at 20 uM measured after 48 hrs by Annexin V-FITC and propidium iodide staining based flow cytometry (Rvb= 1%); type: functional
[32] = target: PH-interacting protein (Homo sapiens) (UniProt Q8WWQ0); details: dose 200.0 µM, time 30.0 min
LNCaP C4-2B [33] = experiment: Induction of apoptosis in human LNCaP C4-2B cells assessed as increase in apoptotic cells at 10 uM measured after 48 hrs by Annexin V-FITC and propidium iodide staining based flow cytometry (Rvb= 1%); type: functional

**Q.** What does the source list for `COc1ccn2c(C(C)=O)cc(C(=O)Nc3cc(C(C)O)cc(-c4cnn(C5CC5)c4)c3F)c2c1` (stereo not given)?
**A.** efflux ratio at 2 h, 10 µM [1]: 1.77; Activity (CWR22R [2]): Active; Activity (CWR22R [3]): Dde; CL [4]: 2.33 mL/min/kg; half-life at 1 µM [5]: 45.9 min; ΔTm [6]: -1.5 °C; Kd [7]: 840 nM; ΔTm [8]: 12 °C; Kd [9]: 1500 nM; inhibition (CWR22R [10]): Active; bioavailability [11]: 25.9%; IC50 (LNCaP): 590 nM; ΔTm [12]: -0.5 °C; Activity (CWR22R [13]): Active; Cmax [14]: 8110 ng/mL; Cmax [15]: 1570 ng/mL; Papp A→B at 2 h, 10 µM [16]: 6.68 ×10⁻⁶ cm/s; Kd (CREB-binding protein [17]): 58 nM; CLint scaled at 1 µM [18]: 81.9 mL/min/kg; AUC(0-inf) [19]: 4820 ng·h/mL; ΔTm [20]: -0.5 °C; inhibition (LNCaP C4-2B [21]): Active; ΔTm [22]: -3.3 °C; ΔTm [23]: -0.8 °C; ΔTm (CREB-binding protein [24]): 11.5 °C; ΔTm [25]: 0 °C; Activity [26]: Non-Toxic; hepatic extraction ratio at 0.75 h, 1 µM (in vitro): 0.495; remaining at 0.75 h, 1 µM [27]: 23.1%; ΔTm [28]: -0.6 °C; ΔTm [29]: -2.5 °C; CLint scaled at 1 µM [30]: 54.1 mL/min/kg; Activity (LNCaP C4-2B [31]): 13.08%; ΔTm [32]: 0 °C; Activity (LNCaP C4-2B [33]): 10.39%
